Test results as given in US10640486B2, “Heteroarylcarboxamide derivatives as plasma kallikrein inhibitors” (Boehringer Ingelheim International GmbH, priority 2015, dated 2020).

Biological target: human Plasma Kallikrein (KLKB1) (Homo sapiens (Human), UniProt P03952)
Assay: Inhibition of KLKB1 endpoint assay
Format: biochemical
Details: fluorogenic substrate H-Pro-Phe-Arg-AMC, 1 hr at Room Temperature, read-out: IC50 measurements for the inhibition of human Plasma Kallikrein (KLKB1)
Description: The ability of compounds of Formula I to inhibit plasma kallikrein (KLKB1), Factor XIIa (FXIIa), Factor XIa (FXIa), Factor Xa (FXa), Factor IIa (alpha-thrombin; FIIa), plasmin, trypsin, tissue kallikrein 1 (KLK1), Factor VIIa (FVIIa), or FVIIa complexed with Tissue Factor, phospholipids and CaCl2 (FVIIa/TF/PL/CaCl2) was determined using the following biochemical assays in assay buffer (100 mM Tris, 150 mM NaCL, adjusted to a pH of 7.8 with HCl, and containing 0.1% (w/v) BSA and 0.05% (v/v) Tween20) in the presence of 1% (v/v) DMSO:
Evaluation of the Inhibition of KLKB1 Using an Endpoint Assay
Subsequently, PPACK II (Calbiochem) was added as a stop solution to achieve a final concentration of 1 μM and fluorescence was measured using an Envision Reader (PerkinElmer) with the wavelength excitation setting of 355 nm and the wavelength emission setting of 460 nm.
The IC50 values were obtained with the aid of the inhibition of KLKB1 endpoint assay described above.

Sequence of human Plasma Kallikrein (KLKB1) (P03952 391-638): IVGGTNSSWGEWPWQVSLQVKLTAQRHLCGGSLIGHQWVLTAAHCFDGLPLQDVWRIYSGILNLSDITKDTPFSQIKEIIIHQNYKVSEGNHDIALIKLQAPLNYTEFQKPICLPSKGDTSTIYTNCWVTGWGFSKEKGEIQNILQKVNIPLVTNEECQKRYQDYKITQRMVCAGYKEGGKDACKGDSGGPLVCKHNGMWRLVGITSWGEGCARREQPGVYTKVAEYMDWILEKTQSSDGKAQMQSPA
Sequence of human Plasma Kallikrein (KLKB1) (P03952 20-390 partner): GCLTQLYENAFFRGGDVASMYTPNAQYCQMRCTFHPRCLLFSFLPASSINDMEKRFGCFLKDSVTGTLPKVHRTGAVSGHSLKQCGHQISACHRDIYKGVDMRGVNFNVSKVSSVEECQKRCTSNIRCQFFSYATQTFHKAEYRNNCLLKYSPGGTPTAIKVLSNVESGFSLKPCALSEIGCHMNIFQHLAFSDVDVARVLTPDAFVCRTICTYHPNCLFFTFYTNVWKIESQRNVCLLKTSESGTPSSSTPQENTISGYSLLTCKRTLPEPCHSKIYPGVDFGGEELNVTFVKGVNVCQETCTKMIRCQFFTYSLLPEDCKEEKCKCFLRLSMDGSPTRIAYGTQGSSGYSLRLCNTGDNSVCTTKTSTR

Nc1ccc2c(n1)CCC2NC(=O)c1cn(Cc2ccc(N3CC4CCCN4C3=O)cc2)nn1 (stereo not shown) [Example 63, 1-[4-(3-Oxo-tetrahydro-pyrrolo[1,2-c]imidazol-2-yl)-benzyl]-1H-[1,2,3]triazole-4-carboxylic acid (2-amino-6,7-dihydro-5H-[1]pyrindin-5-yl)-amide]
IC50: 3 µM

Nc1ccc2c(n1)CCC2NC(=O)c1cn(Cc2ccc(CN3CCC4(CC4)C3=O)cc2)nn1 (stereo not shown) [Example 64, 1-[4-(4-Oxo-5-aza-spiro[2.4]hept-5-ylmethyl)-benzyl]-1H-[1,2,3]triazole-4-carboxylic acid (2-amino-6,7-dihydro-5H-[1]pyrindin-5-yl)-amide]
IC50: 0.58 µM

Nc1ccc2c(n1)CCC2NC(=O)c1cn(Cc2ccc(N3CC4CC4C3=O)cc2)nn1 (stereo not shown) [Example 65, 1-[4-(2-Oxo-3-aza-bicyclo[3.1.0]hex-3-yl)-benzyl]-1H-[1,2,3]triazole-4-carboxylic acid (2-amino-6,7-dihydro-5H-[1]pyrindin-5-yl)-amide]
IC50: 1.1 µM

Cc1cc(Cn2cc(C(=O)N[C@@H]3CCc4nc(N)ccc43)cn2)ccc1CN1CC2CC2C1=O (stereo partly drawn) [Example 66, 1-[3-Methyl-4-(2-oxo-3-aza-bicyclo[3.1.0]hex-3-ylmethyl)-benzyl]-1H-pyrazole-4-carboxylic acid ((R)-2-amino-6,7-dihydro-5H-[1]pyrindin-5-yl)-amide]
IC50: 0.018 µM

Cc1cc(CN2CC3CC3C2=O)ccc1Cn1cc(C(=O)N[C@@H]2CCc3nc(N)ccc32)cn1 (stereo partly drawn) [Example 69, 1-[2-Methyl-4-(2-oxo-3-aza-bicyclo[3.1.0]hex-3-ylmethyl)-benzyl]-1H-pyrazole-4-carboxylic acid ((R)-2-amino-6,7-dihydro-5H-[1]pyrindin-5-yl)-amide]
IC50: 0.055 µM

Nc1ccc2c(n1)CCC2NC(=O)c1cn(Cc2cccc(N3CCN4CCCCC4C3=O)c2)nn1 (stereo not shown) [Example 70, 1-[3-(1-Oxo-octahydro-pyrido[1,2-a]pyrazin-2-yl)-benzyl]-1H-[1,2,3]triazole-4-carboxylic acid (2-amino-6,7-dihydro-5H-[1]pyrindin-5-yl)-amide]
IC50: > 10 µM

CC(c1ccc(N2CC3CC3C2)nc1)n1cc(C(=O)N[C@@H]2CCc3c2ccnc3N)cn1 (stereo partly drawn) [Example 71, 1-{1-[6-(3-Aza-bicyclo[3.1.0]hex-3-yl)-pyridin-3-yl]-ethyl}-1H-pyrazole-4-carboxylic acid ((R)-1-amino-6,7-dihydro-5H-[2]pyrindin-5-yl)amide]
IC50: 0.009 µM

Nc1nccc2c1CC[C@H]2NC(=O)c1cnn(C2(c3ccc(N4CC5CC5C4)nc3)CC2)c1 (stereo partly drawn) [Example 74, 1-{1-[6-(3-Aza-bicyclo[3.1.0]hex-3-yl)-pyridin-3-yl]-cyclopropyl}-1H-pyrazole-4-carboxylic acid ((R)-1-amino-6,7-dihydro-5H-[2]pyrindin-5-yl)amide]
IC50: 0.041 µM

Nc1nccc2c1CC[C@H]2NC(=O)c1cnn(Cc2ccc(N3CC4CC4C3)nc2)c1 (stereo partly drawn) [Example 75, 1-[6-(3-Aza-bicyclo[3.1.0]hex-3-yl)-pyridin-3-ylmethyl]-1H-pyrazole-4-carboxylic acid ((R)-1-amino-6,7-dihydro-5H-[2]pyrindin-5-yl)amide]
IC50: 0.001 µM

Nc1ccc2c(n1)CC[C@H]2NC(=O)c1cnn(Cc2ccc(N3CC4CC4C3)nc2)c1 (stereo partly shown) [Example 76]
IC50: 0.008 µM

Nc1nccc2c1CC[C@H]2NC(=O)c1cn(Cc2ccc(N3CC4CC4C3)nc2)nc1C(F)(F)F (stereo partly shown) [Example 77]
IC50: 0.002 µM

Nc1ccc2c(n1)CC[C@H]2NC(=O)c1cn(Cc2ccc(N3CC4CC4C3)nc2)nc1C(F)(F)F (stereo partly shown) [Example 78]
IC50: 0.021 µM

Nc1nccc2c1CC[C@H]2NC(=O)c1cnn(Cc2ccc(N3CC4CCC4C3)nc2)c1 (stereo partly shown) [Example 79]
IC50: 0.008 µM

Nc1nccc2c1CC[C@H]2NC(=O)c1cnn(Cc2cnc(N3CC4CC4C3)nc2)c1 (stereo partly shown) [Example 80]
IC50: 0.003 µM

Nc1ccc2c(n1)CC[C@H]2NC(=O)c1cnn(Cc2cnc(N3CC4CC4C3)nc2)c1 (stereo partly shown) [Example 81]
IC50: 0.019 µM

Nc1nccc2c1CC[C@H]2NC(=O)c1cn(Cc2cnc(N3CC4CC4C3)nc2)nn1 (stereo partly shown) [Example 82]
IC50: 0.007 µM

Nc1ccc2c(n1)CC[C@H]2NC(=O)c1cn(Cc2cnc(N3CC4CC4C3)nc2)nn1 (stereo partly shown) [Example 83]
IC50: 0.073 µM

Nc1nccc2c1CC[C@H]2NC(=O)c1cnn(Cc2ccc(N3CC4C(C3)C4(F)F)nc2)c1 (stereo partly shown) [Example 84]
IC50: 0.001 µM

Nc1nccc2c1CC[C@H]2NC(=O)c1cnn(Cc2cnc(N3CC4CC4C3)cn2)c1 (stereo partly shown) [Example 85]
IC50: 0.004 µM

Nc1ccc2c(n1)CC[C@H]2NC(=O)c1cnn(Cc2cnc(N3CC4CC4C3)cn2)c1 (stereo partly shown) [Example 86]
IC50: 0.034 µM

Cc1cc(N)nc2c1C(NC(=O)c1cn(Cc3ccc(N4CC5COCCN5C4=O)cc3)nn1)CC2 (stereo not shown) [Example 87, 1-[4-(3-Oxo-tetrahydro-imidazo[5,1-c][1,4]oxazin-2-yl)-benzyl]-1H-[1,2,3]triazole-4-carboxylic acid (2-amino-4-methyl-6,7-dihydro-5H-[1]pyrindin-5-yl)-amide]
IC50: 3.2 µM

Nc1nccc2c1CC[C@H]2NC(=O)c1cnn(Cc2ccc(N3CCC4(CC4)C3)nc2)c1 [Example 89]
IC50: 0.005 µM

Nc1nccc2c1CC[C@H]2NC(=O)c1cnn(Cc2ccc(N3CC4(COC4)C3)nc2)c1 [Example 90]
IC50: 0.078 µM

Nc1nccc2c1CC[C@H]2NC(=O)c1cnn(Cc2ccc(N3C[C@@H]4[C@@H](CO)[C@@H]4C3)nc2)c1 [Example 91]
IC50: 0.038 µM

Nc1ccc2c(n1)CC[C@H]2NC(=O)c1cn(Cc2cnc(N3CC4CC4C3)nc2)nc1C(F)(F)F (stereo partly shown) [Example 92]
IC50: 0.023 µM
